Assay results taken from patent US10047071B1, “Dihydropyrimidinone derivatives” (KING SAUD UNIVERSITY, priority 2018, dated 2018).

Row | Structure (SMILES) | melting point [°C]
1 | O=C1NC=C(C(=O)c2ccc(-n3ccnc3)cc2)C(c2ccccc2)N1 (centres unmarked) [Compound 1, 5-[4-(1H-imidazol-1-yl)benzoyl]-4-phenyl-3,4-dihydropyrimidin-2(1H)-one] | 130 to 132
2 | O=C1NC=C(C(=O)c2ccc(-n3ccnc3)cc2)C(c2ccccc2[N+](=O)[O-])N1 (centres unmarked) [Compound 2, 5-[4-(1H-imidazol-1-yl)benzoyl]-4-(2-nitrophenyl)-3,4-dihydropyrimidin-2(1H)-one] | 155 to 157
3 | O=C1NC=C(C(=O)c2ccc(-n3ccnc3)cc2)C(c2ccc([N+](=O)[O-])cc2)N1 (centres unmarked) [Compound 3, 5-[4-(1H-imidazol-1-yl)benzoyl]-4-(4-nitrophenyl)-3,4-dihydropyrimidin-2(1H)-one] | 158 to 160
4 | O=C1NC=C(C(=O)c2ccc(-n3ccnc3)cc2)C(c2cccc([N+](=O)[O-])c2)N1 (centres unmarked) [Compound 4, 5-[4-(1H-imidazol-1-yl)benzoyl]-4-(3-nitrophenyl)-3,4-dihydropyrimidin-2(1H)-one] | 160 to 162
5 | O=C1NC=C(C(=O)c2ccc(-n3ccnc3)cc2)C(c2ccc(Cl)cc2)N1 (centres unmarked) [Compound 5, 4-(4-chlorophenyl)-5-[4-(1H-imidazol-1-yl)benzoyl]-3,4-dihydropyrimidin-2(1H)-one] | 180 to 182
6 | O=C1NC=C(C(=O)c2ccc(-n3ccnc3)cc2)C(c2ccc(Cl)cc2Cl)N1 (centres unmarked) [Compound 6, 4-(2,4-dichlorophenyl)-5-[4-(1H-imidazol-1-yl)benzoyl]-3,4-dihydropyrimidin-2(1H)-one] | 138 to 140
7 | COc1ccccc1C1NC(=O)NC=C1C(=O)c1ccc(-n2ccnc2)cc1 (centres unmarked) [Compound 7, 5-[4-(1H-imidazol-1-yl)benzoyl]-4-(2-methoxyphenyl)-3,4-dihydropyrimidin-2(1H)-one] | 140 to 142
8 | O=C1NC=C(C(=O)c2ccc(-n3ccnc3)cc2)C(c2cccc(O)c2)N1 (centres unmarked) [Compound 9, 4-(3-hydroxyphenyl)-5-[4-(1H-imidazol-1-yl)benzoyl]-3,4-dihydropyrimidin-2(1H)-one] | 190 to 192
9 | COc1cccc(C2NC(=O)NC=C2C(=O)c2ccc(-n3ccnc3)cc2)c1 (centres unmarked) [Compound 10, 5-[4-(1H-imidazol-1-yl)benzoyl]-4-(3-methoxyphenyl)-3,4-dihydropyrimidin-2(1H)-one] | 125 to 127

Continued, values first:

Row | melting point [°C] | Structure (SMILES)
10 | 135 to 137 | COc1cc(OC)c(C2NC(=O)NC=C2C(=O)c2ccc(-n3ccnc3)cc2)cc1OC (centres unmarked) [Compound 11, 5-[4-(1H-imidazol-1-yl)benzoyl]-4-(2,4,5-trimethoxyphenyl)-3,4-dihydropyrimidin-2(1H)-one]
11 | 138 to 140 | COc1ccc(C2NC(=O)NC=C2C(=O)c2ccc(-n3ccnc3)cc2)c(OC)c1OC (centres unmarked) [Compound 12, 5-[4-(1H-imidazol-1-yl)benzoyl]-4-(2,3,4-trimethoxyphenyl)-3,4-dihydropyrimidin-2(1H)-one]
12 | 128 to 130 | COc1cc(C2NC(=O)NC=C2C(=O)c2ccc(-n3ccnc3)cc2)cc(OC)c1OC (centres unmarked) [Compound 13, 5-[4-(1H-imidazol-1-yl)benzoyl]-4-(3,4,5-trimethoxyphenyl)-3,4-dihydropyrimidin-2(1H)-one]
13 | 130 to 132 | COc1cc(OC)c(C2NC(=O)NC=C2C(=O)c2ccc(-n3ccnc3)cc2)c(OC)c1 (centres unmarked) [Compound 14, 5-[4-(1H-imidazol-1-yl)benzoyl]-4-(2,4,6-trimethoxyphenyl)-3,4-dihydropyrimidin-2(1H)-one]
14 | 136 to 138 | COc1ccc(C2NC(=O)NC=C2C(=O)c2ccc(-n3ccnc3)cc2)cc1OC (centres unmarked) [Compound 15, 5-[4-(1H-imidazol-1-yl)benzoyl]-4-(3,4-dimethoxyphenyl)-3,4-dihydropyrimidin-2(1H)-one]
